From patent US11986471B2, “Compounds and methods of use” (Tango Therapeutics, Inc., priority 2018, dated 2024)

Tests used:
HAP1 MTAP-intact = assay: SDMA in-cell western assay, HAP1 MTAP-intact cell line; assay type: cell-based; conditions: Homo sapiens
In short: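 Using an MTAP-isogenic HAP1 cell pair, inhibition of SDMA formation is read by in-cell western and expressed as IC50. MTAP-selectivity is assigned where the ratio between lines reaches 3 fold or greater.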

PRMT5 [1] = target: T1, PRMT5 (Homo sapiens, UniProt O14744); assay: PRMT5 IC50 assay in the presence of MTA as cofactor; assay type: biochemical; conditions: for IC50: PRMT5, MTA as cofactor; for SAM/MTA Ratio: ratio between the Ki in the presence of SAM and the Ki in the presence of MTA
T1 construct: purchased Viva (custom protein)
T1 sequence (O14744 whole entry): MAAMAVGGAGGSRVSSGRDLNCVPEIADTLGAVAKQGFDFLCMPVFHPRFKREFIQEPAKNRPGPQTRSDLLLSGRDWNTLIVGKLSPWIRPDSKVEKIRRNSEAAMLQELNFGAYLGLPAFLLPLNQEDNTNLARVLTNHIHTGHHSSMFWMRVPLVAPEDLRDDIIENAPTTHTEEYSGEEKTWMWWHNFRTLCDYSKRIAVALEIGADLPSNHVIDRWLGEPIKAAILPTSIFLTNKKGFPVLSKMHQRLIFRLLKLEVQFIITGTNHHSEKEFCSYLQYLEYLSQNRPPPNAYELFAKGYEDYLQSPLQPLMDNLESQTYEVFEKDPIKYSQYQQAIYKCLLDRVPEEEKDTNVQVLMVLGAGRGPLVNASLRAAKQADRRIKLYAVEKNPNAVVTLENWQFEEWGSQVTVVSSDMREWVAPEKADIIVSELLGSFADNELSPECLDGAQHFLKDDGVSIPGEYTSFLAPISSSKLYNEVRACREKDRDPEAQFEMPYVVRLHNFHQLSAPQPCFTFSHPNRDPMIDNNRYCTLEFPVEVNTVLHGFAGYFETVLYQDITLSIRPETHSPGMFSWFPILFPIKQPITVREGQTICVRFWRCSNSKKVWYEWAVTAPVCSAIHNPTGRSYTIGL
T1 sequence (Q9BQA1 whole entry partner): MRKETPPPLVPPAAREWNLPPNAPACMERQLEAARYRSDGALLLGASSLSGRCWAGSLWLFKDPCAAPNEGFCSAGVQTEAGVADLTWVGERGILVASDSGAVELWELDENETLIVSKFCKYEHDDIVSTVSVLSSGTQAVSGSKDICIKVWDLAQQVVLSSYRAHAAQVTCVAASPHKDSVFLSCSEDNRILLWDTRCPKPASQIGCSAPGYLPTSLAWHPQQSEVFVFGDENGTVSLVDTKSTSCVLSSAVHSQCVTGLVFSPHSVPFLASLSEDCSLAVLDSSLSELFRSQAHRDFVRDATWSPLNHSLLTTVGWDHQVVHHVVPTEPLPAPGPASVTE
In short: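 MTA-dependent versus SAM-dependent inhibition of human PRMT5 was assessed by IC50; conversion factors of 13.5 and 1.5 gave the corresponding Ki.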

PRMT5 [2] = target: T1, PRMT5; assay: PRMT5 IC50 assay in the presence of SAM as cofactor; assay type: biochemical
In short: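 IC50 against PRMT5 determined with SAM as cofactor, with no cofactor, and with MTA as cofactor. Ki derived as IC50/1.5 for the SAM assay and IC50/13.5 for the MTA assay; SAM Ki to MTA Ki ratio also reported.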

PRMT5 [3] = target: T1, PRMT5; assay: PRMT5 IC50 assay with no cofactor; assay type: biochemical
In short: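 Three cofactor conditions tested for PRMT5 inhibition: none, MTA and SAM, each giving an IC50. For conversion to Ki, the MTA-condition IC50 is divided by 13.5 and the SAM-condition IC50 by 1.5, and the two Ki values are expressed as a SAM/MTA ratio.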

HAP1 MTAP-deleted = assay: SDMA in-cell western assay, HAP1 MTAP-deleted cell line; assay type: cell-based; conditions: for IC50: Homo sapiens, HAP1 MTAP-deleted cell line; for MTAP Intact/Deleted Ratio: IC50 ratio HAP1 MTAP-intact / HAP1 MTAP-deleted
In short: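 In-cell western for SDMA marks; MTAP-deleted (null) HAP1 background; values given as IC50.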

| SMILES | IC50 (HAP1 MTAP-intact) [nM] | IC50 (PRMT5 [1]) [nM] | SAM/MTA Ratio (PRMT5 [1]) | IC50 (PRMT5 [2]) [nM] | IC50 (PRMT5 [3]) [nM] | IC50 (HAP1 MTAP-deleted) [nM] | MTAP Intact/Deleted Ratio (HAP1 MTAP-deleted) |
| --- | --- | --- | --- | --- | --- | --- | --- |
| CCN(C)c1nc(NC2COC2)cc(C(=O)NC[C@H](O)CN2CCc3cc(OCc4ocnc4C)ccc3C2)n1 [Compound 457, 2-[ethyl(methyl)amino]-N-[(2S)-2-hydroxy-3-{6-[(4-methyl-1,3-oxazol-5-yl)methoxy]-1,2,3,4-tetrahydroisoquinolin-2-yl}propyl]-6-[(oxetan-3-yl)amino]pyrimidine-4-carboxamide] | < 1000 | 50 to 500 | A (a Ki ratio greater than or equal to 10 fold between the Ki in the presence of SAM and the Ki in the presence of MTA) | 50 to 500 | 500 to 5000 | < 1000 | C* (an IC50 ratio of less than 3 fold between the IC50 in the HAP1 MTAP-intact cell line and the HAP1 MTAP-deleted cell line) |
| CC(C)C(=O)N1CCC(Nc2cc(C(=O)NC[C@H](O)CN3CCc4cc(OCc5cnco5)ccc4C3)ccn2)CC1 [Compound 458, N-[(2S)-2-hydroxy-3-[6-(oxazol-5-ylmethoxy)-3,4-dihydro-1H-isoquinolin-2-yl]propyl]-2-[[1-(2-methylpropanoyl)-4-piperidyl]amino]pyridine-4-carboxamide] | 1000 to 10000 | 50 to 500 | A (a Ki ratio greater than or equal to 10 fold between the Ki in the presence of SAM and the Ki in the presence of MTA) | 50 to 500 | 500 to 5000 | < 1000 | C* (an IC50 ratio of less than 3 fold between the IC50 in the HAP1 MTAP-intact cell line and the HAP1 MTAP-deleted cell line) |
| Cc1ncoc1COc1ccc2c(c1C)CCN(C[C@@H](O)CNC(=O)c1cc(NC3CCC3)nc(N3CCN(C(=O)C(C)C)CC3)c1)C2 [Compound 459, 2-(cyclobutylamino)-N-[(2S)-2-hydroxy-3-{5-methyl-6-[(4-methyl-1,3-oxazol-5-yl)methoxy]-1,2,3,4-tetrahydroisoquinolin-2-yl}propyl]-6-[4-(2-methylpropanoyl)piperazin-1-yl]pyridine-4-carboxamide] | 1000 to 10000 | 50 to 500 | A (a Ki ratio greater than or equal to 10 fold between the Ki in the presence of SAM and the Ki in the presence of MTA) | 50 to 500 | 500 to 5000 | < 1000 | A* (an IC50 ratio greater than or equal to 10 fold between the IC50 in the HAP1 MTAP-intact cell line and the HAP1 MTAP-deleted cell line) |
| CCC(=O)N1CCC(Nc2cc(C(=O)NC[C@H](O)CN3CCc4cc(OCc5cnco5)ccc4C3)ccn2)CC1 [Compound 460, N-[(2S)-2-hydroxy-3-[6-(oxazol-5-ylmethoxy)-3,4-dihydro-1H-isoquinolin-2-yl]propyl]-2-[(1-propanoyl-4-piperidyl)amino]pyridine-4-carboxamide] | 1000 to 10000 | 50 to 500 | A (a Ki ratio greater than or equal to 10 fold between the Ki in the presence of SAM and the Ki in the presence of MTA) | 50 to 500 | 500 to 5000 | < 1000 | B* (an IC50 ratio greater than or equal to 3 fold but lower than 10 fold between the IC50 in the HAP1 MTAP-intact cell line and the HAP1 MTAP-deleted cell line) |
| Cc1ncoc1COc1ccc2c(c1C)CCN(C[C@@H](O)CNC(=O)c1cc(NC3CCC3)nc(N3CCOCC3)c1)C2 [Compound 461, 2-(cyclobutylamino)-N-[(2S)-2-hydroxy-3-{5-methyl-6-[(4-methyl-1,3-oxazol-5-yl)methoxy]-1,2,3,4-tetrahydroisoquinolin-2-yl}propyl]-6-(morpholin-4-yl)pyridine-4-carboxamide] | ≥ 10000 | 50 to 500 | – | 50 to 500 | ≥ 5000 | 1000 to 10000 | B* (an IC50 ratio greater than or equal to 3 fold but lower than 10 fold between the IC50 in the HAP1 MTAP-intact cell line and the HAP1 MTAP-deleted cell line) |
| CC(C)N1CCN(c2cc(C(=O)NC[C@H](O)CN3CCc4cc(OCc5cnco5)ccc4C3)cc(NC3CCC3)n2)CC1 [Compound 462, (S)-2-(cyclobutylamino)-N-(2-hydroxy-3-(6-(oxazol-5-ylmethoxy)-3,4-dihydroisoquinolin-2(1H)-yl)propyl)-6-(4-isopropylpiperazin-1-yl)isonicotinamide] | ≥ 10000 | 50 to 500 | A (a Ki ratio greater than or equal to 10 fold between the Ki in the presence of SAM and the Ki in the presence of MTA) | 50 to 500 | 500 to 5000 | ≥ 10000 | C* (an IC50 ratio of less than 3 fold between the IC50 in the HAP1 MTAP-intact cell line and the HAP1 MTAP-deleted cell line) |
| Cc1ncoc1COc1ccc2c(c1)CCN(C[C@@H](O)CNC(=O)c1cc(NC3CCC3)nc(N3CCN(C(=O)C(C)C)CC3)c1)C2 [Compound 463, 2-(cyclobutylamino)-N-[(2S)-2-hydroxy-3-{6-[(4-methyl-1,3-oxazol-5-yl)methoxy]-1,2,3,4-tetrahydroisoquinolin-2-yl}propyl]-6-[4-(2-methylpropanoyl)piperazin-1-yl]pyridine-4-carboxamide] | < 1000 | 50 to 500 | A (a Ki ratio greater than or equal to 10 fold between the Ki in the presence of SAM and the Ki in the presence of MTA) | 50 to 500 | 500 to 5000 | < 1000 | B* (an IC50 ratio greater than or equal to 3 fold but lower than 10 fold between the IC50 in the HAP1 MTAP-intact cell line and the HAP1 MTAP-deleted cell line) |
| O=C(NC[C@H](O)CN1CCc2c(ccc(OCc3cnco3)c2Cl)C1)c1cc(NC2CCC2)nc(N2CCNCC2)c1 [Compound 464, (S)—N-(3-(5-chloro-6-(oxazol-5-ylmethoxy)-3,4-dihydroisoquinolin-2(1H)-yl)-2-hydroxypropyl)-2-(cyclobutylamino)-6-(piperazin-1-yl)isonicotinamide] | ≥ 10000 | 50 to 500 | A (a Ki ratio greater than or equal to 10 fold between the Ki in the presence of SAM and the Ki in the presence of MTA) | 50 to 500 | 500 to 5000 | ≥ 10000 | C* (an IC50 ratio of less than 3 fold between the IC50 in the HAP1 MTAP-intact cell line and the HAP1 MTAP-deleted cell line) |
| CCCN(C)c1nc(NC2COC2)cc(C(=O)NC[C@H](O)CN2CCc3c(ccc(OCc4ocnc4C)c3C)C2)n1 [Compound 465, N-[(2K)-2-hydroxy-3-{5-methyl-6-[(4-methyl-1,3-oxazol-5-yl)methoxy]-1,2,3,4-tetrahydroisoquinolin-2-yl}propyl]-2-[methyl(propyl)amino]-6-[(oxetan-3-yl)amino]pyrimidine-4-carboxamide] | ≥ 10000 | 50 to 500 | A (a Ki ratio greater than or equal to 10 fold between the Ki in the presence of SAM and the Ki in the presence of MTA) | 50 to 500 | ≥ 5000 | 1000 to 10000 | B* (an IC50 ratio greater than or equal to 3 fold but lower than 10 fold between the IC50 in the HAP1 MTAP-intact cell line and the HAP1 MTAP-deleted cell line) |
| CC(C)C(=O)N1CCN(c2cc(C(=O)NC[C@H](O)CN3CCc4c(ccc(OCc5cnco5)c4Cl)C3)cc(NC3CCC3)n2)CC1 [Compound 466] | < 1000 | 50 to 500 | A (a Ki ratio greater than or equal to 10 fold between the Ki in the presence of SAM and the Ki in the presence of MTA) | 50 to 500 | 500 to 5000 | < 1000 | C* (an IC50 ratio of less than 3 fold between the IC50 in the HAP1 MTAP-intact cell line and the HAP1 MTAP-deleted cell line) |
| Cc1ncoc1COc1ccc2c(n1)CCN(C[C@@H](O)CNC(=O)c1ccnc(NC3CCC3)c1)C2 [Compound 467, 2-(cyclobutylamino)-N-[(2S)-2-hydroxy-3-[2-[(4-methyloxazol-5-yl)methoxy]-7,8-dihydro-5H-1,6-naphthyridin-6-yl]propyl]pyridine-4-carboxamide] | ≥ 10000 | 50 to 500 | A (a Ki ratio greater than or equal to 10 fold between the Ki in the presence of SAM and the Ki in the presence of MTA) | 50 to 500 | ≥ 5000 | 1000 to 10000 | C* (an IC50 ratio of less than 3 fold between the IC50 in the HAP1 MTAP-intact cell line and the HAP1 MTAP-deleted cell line) |
| O=C(NC[C@H](O)CN1CCc2cc(OCc3cnco3)ccc2C1)c1ccnc(NC2CN(C(=O)C3CCC3)C2)c1 [Compound 468, 2-[[1-(cyclobutanecarbonyl)azetidin-3-yl]amino]-N-[(2S)-2-hydroxy-3-[6-(oxazol-5-ylmethoxy)-3,4-dihydro-1H-isoquinolin-2-yl]propyl]pyridine-4-carboxamide] | 1000 to 10000 | 50 to 500 | A (a Ki ratio greater than or equal to 10 fold between the Ki in the presence of SAM and the Ki in the presence of MTA) | 50 to 500 | 500 to 5000 | 1000 to 10000 | B* (an IC50 ratio greater than or equal to 3 fold but lower than 10 fold between the IC50 in the HAP1 MTAP-intact cell line and the HAP1 MTAP-deleted cell line) |
